Data on one compound can be found in patent US20250122193A1, “NOVEL PYRIDOCARBAZOLIUM COMPOUNDS AND MEDICAL USES THEREOF” (MyCural Therapeutics, priority 2021, published 2025).

One data set deals with T1, MYCN:MAX interaction (Homo sapiens, UniProt P04198).
T1 construct: replacing the existing Zip-gene (GCN4) with full length MYC, MYCN or MAX cDNA; expressed in transfected cells; host or cells: HeLa
T1 sequence (P04198 1-464): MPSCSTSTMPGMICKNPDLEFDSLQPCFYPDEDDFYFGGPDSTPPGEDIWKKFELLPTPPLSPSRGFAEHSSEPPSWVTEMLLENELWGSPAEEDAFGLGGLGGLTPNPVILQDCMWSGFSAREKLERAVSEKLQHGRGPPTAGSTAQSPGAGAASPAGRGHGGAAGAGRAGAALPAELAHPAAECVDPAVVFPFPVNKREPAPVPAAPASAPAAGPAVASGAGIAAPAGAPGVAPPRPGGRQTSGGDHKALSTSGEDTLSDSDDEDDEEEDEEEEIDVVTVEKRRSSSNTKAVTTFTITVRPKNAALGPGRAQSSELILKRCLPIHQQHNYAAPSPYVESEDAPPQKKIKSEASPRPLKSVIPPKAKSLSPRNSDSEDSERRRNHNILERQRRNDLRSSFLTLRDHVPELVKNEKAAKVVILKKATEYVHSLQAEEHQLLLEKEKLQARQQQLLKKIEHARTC
Kind of data set: split Gaussia luciferase (GLuc) assay, MYCN:MAX. The class given is cell-based. The following applies: 5 μM, HeLa cells. The protocol: A) Molecular structure of MYCMI-7. B-E) split Gaussia luciferase (GLuc) assay. MYC or MYCN and MAX Gluc constructs were co-transfected into HeLa cells together with a firefly luciferase vector. 24 hours post transfection cells were treated with compounds, and after another 17-24 hours cells were harvested and both GLuc and firefly luciferase activities were measured. The mean of three different experiments is shown. Treatment with: B) 5 μM of MYCMI-7, 64 μM 10058-F4 or 5 μM JQ1, respectively, C) 6.5 μM MYCMI-7 on cells expressing MYC:MAX GLuc vs. GCN4:GCN4 GLuc, D) 5 μM MYCMI-7 and 5 μM ellipticine. E) 5 μM MYCMI-7 for various time points. F) in situ proximity ligation assay (isPLA). […] MYC:GAL4 was used as negative control in the isPLA assay. G) Quantification of isPLA dots. (H) Co-immunoprecipitation (co-IP) of endogenous MYC and MAX proteins from MCF7 cells after treatment with 5 μM MYCMI-7 at various times. IP=immunoprecipitation; W=western blot. I) Chromatin immunoprecipitation (ChIP) of MYC at the ODC1 target gene promoter after treatment of cells with 5 μM MYCMI-7 for 6 hours. J) MYC target gene ODC1 expression after treatment with 5 μM MYCMI-7, quantified by qPCR. […] L) Recombinant MYC bHLHZip protein domain immobilized onto a CM5 chip was subjected to various concentrations of MYCMI-7 and the complex of MYCbHLHZip-MYCMI-7 was measured as response units by SPR. […]
0.2-0.4 μg of each GLuc-construct together with 0.05 μg pCMV-LUC (firefly luciferase) were used per transfection in 12 well plates. […] After 60 min incubation at room temperature 20 μM D-luciferin was added (substrate of Firefly luciferase) and luminescence was measured in a Lumat LB9501 (Berthold) or OmegaFluostar (BMG Labtech) luminometer. Directly after, Gaussia luciferase substrate Coelenterazine (Promega) was added to a final concentration of 20 μM in a mixture with “Stop n' Glow” (Promega) and the luciferase activity was measured. The ratio between Gaussia and Firefly luciferase values were calculated and normalized to DMSO-treated control cells.

The target in data set [1] is T2, endogenous MYC:MAX interaction (Homo sapiens, UniProt P01106).
T2 construct: endogenous in cells; host or cells: MCF7
Description: in situ proximity ligation assay (isPLA), MYC:MAX. The class given is cell-based. The note with it: 5 μM, 24 hours, MCF-7 cells. The protocol:
FIG. 1: MYCMI-7 (Compound Example 1) inhibits the MYC:MAX interaction in cells, bind MYC in vitro, and blocks MYC function. A) Molecular structure of MYCMI-7. B-E) split Gaussia luciferase (GLuc) assay. MYC or MYCN and MAX Gluc constructs were co-transfected into HeLa cells together with a firefly luciferase vector. 24 hours post transfection cells were treated with compounds, and after another 17-24 hours cells were harvested and both GLuc and firefly luciferase activities were measured. The mean of three different experiments is shown. […] G) Quantification of isPLA dots. […] J) MYC target gene ODC1 expression after treatment with 5 μM MYCMI-7, quantified by qPCR. […] L) Recombinant MYC bHLHZip protein domain immobilized onto a CM5 chip was subjected to various concentrations of MYCMI-7 and the complex of MYCbHLHZip-MYCMI-7 was measured as response units by SPR. […]
Briefly, cells were grown on collagen-coated chamber slides (Falcon), treated with compounds and then washed twice with PBS and fixed in ice cold methanol for 5-15 min at room temperature. […] Images were taken using an Axiovert 200M inverted microscope (Zeiss) and fluorescent dots were quantified using semi-automated analysis in ImageJ (http://imagej.net) and averaged to number of dots per cell. […]

Data set [2] relates to Human neuroblastoma cells. Kind of data set: growth/viability of neuroblastoma cells with or without MYCN-amplification. The note with it: 6.25 μM, 24 hrs.
Description: Cell proliferation/viability/metabolic activity was measured using the WST-1 assay. B) Human neuroblastoma cells with or without MYCN-amplification where treated with 6.25 μM MYCMI-7 or 64 μM 10058-F4 for 24 hrs. […] For the WST-1 assays the average of three different experiments performed in triplicates is shown.
Cell growth and viability assays: Cell growth and viability was estimated in triplicates with WST-1 (Roche) or Resazurin sodium salt (Sigma-Aldrich) assays in medium at 37° C. and 5% CO2 for 2 hours after which absorbance or fluorescence, respectively, was measured with an Omega Fluostar (BMG Labtech) in a 96 well plate format. Cell viability by the Cyt60 assay was carried out as in manufacturers' protocol.

T2 sequence (P01106 16-454): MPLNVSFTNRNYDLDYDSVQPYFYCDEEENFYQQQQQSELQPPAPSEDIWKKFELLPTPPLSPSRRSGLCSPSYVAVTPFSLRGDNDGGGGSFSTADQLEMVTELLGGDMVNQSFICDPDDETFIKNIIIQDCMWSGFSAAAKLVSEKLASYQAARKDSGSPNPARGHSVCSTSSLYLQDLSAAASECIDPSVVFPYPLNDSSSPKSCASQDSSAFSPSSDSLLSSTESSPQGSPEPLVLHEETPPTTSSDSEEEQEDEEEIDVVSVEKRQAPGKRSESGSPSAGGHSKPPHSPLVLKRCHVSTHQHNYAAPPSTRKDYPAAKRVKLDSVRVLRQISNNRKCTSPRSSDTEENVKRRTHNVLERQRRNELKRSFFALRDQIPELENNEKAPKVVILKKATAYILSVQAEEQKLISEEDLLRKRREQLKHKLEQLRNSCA
Description for Caco2 cell assay: First, we performed a pharmacokinetic study of the behavior of the molecule in mice.

`CCN(CC)CC[n+]1ccc2c(C)c3[nH]c4ccccc4c3c(C)c2c1` [MYCMI-7, 2-(5,11-Dimethyl-6H-25-pyrido[4,3-b]carbazol-2-yl)-N,N-diethylethanamine bromide]: on MYCN:MAX interaction, the “inhibition of MYCN:MAX GLuc interaction” value is given as “inhibited”. In addition, in data set [1], the “inhibition of MYC:MAX interaction (isPLA)” value is reported as “strongly inhibited”. In addition, the efflux result in the data set “Caco2 cell assay” is “strong efflux”. In data set [2], the “effect in MYCN-amplified versus non-amplified neuroblastoma cells” value was “significantly stronger”; the “tumor growth and viability in all neuroblastoma cell lines” value was “reduced tumor growth and viability”.
